Activity calls are given as the source filed them. The rule behind the calls is not given here.
Tested on: CCRIS mutagenicity, Ames/micronucleus/aberration tests
Experiment: CCRIS mutagenicity studies
[1] = Test System: AMES SALMONELLA TYPHIMURIUM, Strain/Indicator: TA100, Metabolic Activation: NONE, Method: PREINCUBATION

## CN(CCCC(=O)c1cccnc1)N=O
[1]
  mutagenic call: inactive; negative
Test System: AMES SALMONELLA TYPHIMURIUM, Strain/Indicator: TA100, Metabolic Activation: RABBIT, LIVER, S-9, Method: PREINCUBATION
  mutagenic call: active; positive
Test System: AMES SALMONELLA TYPHIMURIUM, Strain/Indicator: TA100, Metabolic Activation: RABBIT, LUNG, CLARA CELLS, Method: PREINCUBATION
  mutagenic call: inactive; negative
Test System: AMES SALMONELLA TYPHIMURIUM, Strain/Indicator: TA100, Metabolic Activation: RABBIT, LUNG, MACROPHAGES, Method: PREINCUBATION
  mutagenic call: inactive; negative
Test System: AMES SALMONELLA TYPHIMURIUM, Strain/Indicator: TA100, Metabolic Activation: RABBIT, LUNG, TYPE II CELLS, Method: PREINCUBATION
  mutagenic call: inactive; negative
Test System: AMES SALMONELLA TYPHIMURIUM, Strain/Indicator: TA100, Metabolic Activation: RAT LIVER S-9, AROCLOR 1254, Method: PREINCUBATION
  mutagenic call: inactive; negative
Test System: AMES SALMONELLA TYPHIMURIUM, Strain/Indicator: TA100, Metabolic Activation: RAT, LIVER, S-9, AROCLOR 1254, Method: STANDARD PLATE
  mutagenic call: active; positive
Test System: AMES SALMONELLA TYPHIMURIUM, Strain/Indicator: TA1530, Metabolic Activation: RABBIT, LIVER, S-9, Method: PREINCUBATION
  mutagenic call: active; positive
Test System: AMES SALMONELLA TYPHIMURIUM, Strain/Indicator: TA1530, Metabolic Activation: RABBIT, LUNG, CLARA CELLS, Method: PREINCUBATION
  mutagenic call: inactive; negative
Test System: AMES SALMONELLA TYPHIMURIUM, Strain/Indicator: TA1530, Metabolic Activation: RABBIT, LUNG, MACROPHAGES, Method: PREINCUBATION
  mutagenic call: inactive; negative
Test System: AMES SALMONELLA TYPHIMURIUM, Strain/Indicator: TA1530, Metabolic Activation: RABBIT, LUNG, TYPE II CELLS, Method: PREINCUBATION
  mutagenic call: inactive; negative
Test System: AMES SALMONELLA TYPHIMURIUM, Strain/Indicator: TA1535, Metabolic Activation: HAMSTER, LIVER, MICROSOMES, 3-METHYLCHOLANTHRENE, Method: PREINCUBATION
  mutagenic call: active; positive
Test System: AMES SALMONELLA TYPHIMURIUM, Strain/Indicator: TA1535, Metabolic Activation: HAMSTER, LIVER, MICROSOMES, AROCLOR 1254, Method: PREINCUBATION
  mutagenic call: active; positive
Test System: AMES SALMONELLA TYPHIMURIUM, Strain/Indicator: TA1535, Metabolic Activation: HAMSTER, LIVER, MICROSOMES, DEXAMETHASONE, Method: PREINCUBATION
  mutagenic call: active; positive
Test System: AMES SALMONELLA TYPHIMURIUM, Strain/Indicator: TA1535, Metabolic Activation: HAMSTER, LIVER, MICROSOMES, ETHANOL, Method: PREINCUBATION
  mutagenic call: active; positive
Test System: AMES SALMONELLA TYPHIMURIUM, Strain/Indicator: TA1535, Metabolic Activation: HAMSTER, LIVER, MICROSOMES, ISOSAFROL, Method: PREINCUBATION
  mutagenic call: active; positive
Test System: AMES SALMONELLA TYPHIMURIUM, Strain/Indicator: TA1535, Metabolic Activation: HAMSTER, LIVER, MICROSOMES, PHENOBARBITAL, Method: PREINCUBATION
  mutagenic call: active; positive
Test System: AMES SALMONELLA TYPHIMURIUM, Strain/Indicator: TA1535, Metabolic Activation: HAMSTER, LIVER, S-9, 3-METHYLCHOLANTHRENE, Method: PREINCUBATION
  mutagenic call: active; positive
Test System: AMES SALMONELLA TYPHIMURIUM, Strain/Indicator: TA1535, Metabolic Activation: HAMSTER, LIVER, S-9, AROCLOR 1254, Method: PREINCUBATION
  mutagenic call: active; positive
Test System: AMES SALMONELLA TYPHIMURIUM, Strain/Indicator: TA1535, Metabolic Activation: HAMSTER, LIVER, S-9, DEXAMETHASONE, Method: PREINCUBATION
  mutagenic call: active; positive
Test System: AMES SALMONELLA TYPHIMURIUM, Strain/Indicator: TA1535, Metabolic Activation: HAMSTER, LIVER, S-9, ETHANOL, Method: PREINCUBATION
  mutagenic call: active; positive
Test System: AMES SALMONELLA TYPHIMURIUM, Strain/Indicator: TA1535, Metabolic Activation: HAMSTER, LIVER, S-9, ISOSAFROL, Method: PREINCUBATION
  mutagenic call: active; positive
Test System: AMES SALMONELLA TYPHIMURIUM, Strain/Indicator: TA1535, Metabolic Activation: HAMSTER, LIVER, S-9, PHENOBARBITAL, Method: PREINCUBATION
  mutagenic call: active; positive
Test System: AMES SALMONELLA TYPHIMURIUM, Strain/Indicator: TA1535, Metabolic Activation: NONE, Method: STANDARD PLATE
  mutagenic call: inactive; negative
Test System: AMES SALMONELLA TYPHIMURIUM, Strain/Indicator: TA1535, Metabolic Activation: RAT, LIVER, HEPATOCYTES, AROCLOR 1254, Method: STANDARD PLATE
  mutagenic call: active; positive
Test System: AMES SALMONELLA TYPHIMURIUM, Strain/Indicator: TA1535, Metabolic Activation: RAT, LIVER, HEPATOCYTES, Method: STANDARD PLATE
  mutagenic call: active; positive
Test System: AMES SALMONELLA TYPHIMURIUM, Strain/Indicator: TA1535, Metabolic Activation: RAT, LIVER, S-9, AROCLOR 1254, Method: STANDARD PLATE
  mutagenic call: active; positive
Test System: AMES SALMONELLA TYPHIMURIUM, Strain/Indicator: TA1535, Metabolic Activation: RAT, LIVER, S-9, Method: STANDARD PLATE
  mutagenic call: inactive; negative
Test System: AMES SALMONELLA TYPHIMURIUM, Strain/Indicator: TA1535, Metabolic Activation: RAT, TRACHEAL EPITHELIAL CELLS, AROCLOR 1254, Method: STANDARD PLATE
  mutagenic call: inactive; negative
Test System: AMES SALMONELLA TYPHIMURIUM, Strain/Indicator: TA1535, Metabolic Activation: RAT, TRACHEAL EPITHELIAL CELLS, Method: STANDARD PLATE
  mutagenic call: inactive; negative
Test System: AMES SALMONELLA TYPHIMURIUM, Strain/Indicator: TA7004, Metabolic Activation: HAMSTER LIVER S-9, AROCLOR 1254, Method: PREINCUBATION
  mutagenic call: active; positive
Test System: AMES SALMONELLA TYPHIMURIUM, Strain/Indicator: TA7004, Metabolic Activation: NONE, Method: PREINCUBATION
  mutagenic call: inactive; negative
Test System: AMES SALMONELLA TYPHIMURIUM, Strain/Indicator: TA7004, Metabolic Activation: RAT LIVER S-9, AROCLOR 1254, Method: PREINCUBATION
  mutagenic call: active; positive
Test System: AMES SALMONELLA TYPHIMURIUM, Strain/Indicator: YG7108-2A6-OR, Metabolic Activation: NONE, Method: PREINCUBATION
  mutagenic call: active; positive
Test System: AMES SALMONELLA TYPHIMURIUM, Strain/Indicator: YG7108-2A6, Metabolic Activation: NONE, Method: PREINCUBATION
  mutagenic call: active; positive
Test System: AMES SALMONELLA TYPHIMURIUM, Strain/Indicator: YG7108-PCW, Metabolic Activation: NONE, Method: PREINCUBATION
  mutagenic call: inactive; negative
Test System: AMES SALMONELLA TYPHIMURIUM, Strain/Indicator: YG7108, Metabolic Activation: RAT LIVER S-9, PHENOBARBITAL AND 5,6-BENZOFLAVONE, Method: PREINCUBATION
  mutagenic call: active; positive
Test System: CHINESE HAMSTER V-79, Strain/Indicator: V-79 (HPRT)/6-THIOGUANINE, Metabolic Activation: RAT, HEPATOCYTES
  mutagenic call: active; positive
Test System: CHINESE HAMSTER V-79, Strain/Indicator: V-79 (HPRT)/6-THIOGUANINE, Metabolic Activation: RAT, HEPATOMA, H4IIE CELLS
  mutagenic call: inactive; negative
Test System: CHINESE HAMSTER V-79, Strain/Indicator: V-79 (HPRT)/6-THIOGUANINE, Metabolic Activation: RAT, LIVER, S-9, AROCLOR 1254
  mutagenic call: active; positive
Test System: E. COLI, Strain/Indicator: NR3835, Metabolic Activation: HOST-MEDIATED, Method: IN VIVO-IN VITRO
  mutagenic call: active; positive
Test System: UDS RABBIT LUNG CLARA CELLS, Strain/Indicator: THY INCORP, Metabolic Activation: NONE, Method: LIQUID SCINTILLATION COUNTING
  mutagenic call: active; positive
Test System: UDS RABBIT LUNG MACROPHAGES, Strain/Indicator: THY INCORP, Metabolic Activation: NONE, Method: LIQUID SCINTILLATION COUNTING
  mutagenic call: inactive; negative
Test System: UDS RABBIT LUNG TYPE II CELLS, Strain/Indicator: THY INCORP, Metabolic Activation: NONE, Method: LIQUID SCINTILLATION COUNTING
  mutagenic call: active; positive
Test System: UDS RODENT HEPATOCYTES, Strain/Indicator: THY INCORP (NON-S-PHASE), Method: AUTORADIOGRAPHY
  mutagenic call: active; positive

## Cc1cnc2ccccc2n1
Test System: AMES SALMONELLA TYPHIMURIUM, Strain/Indicator: TA98, Metabolic Activation: NONE, Method: PREINCUBATION
  mutagenic call: inactive; negative
Test System: AMES SALMONELLA TYPHIMURIUM, Strain/Indicator: TA98, Metabolic Activation: RAT, LIVER, S-9, AROCLOR 1254, Method: PREINCUBATION
  mutagenic call: inactive; negative
[1]
  mutagenic call: inactive; negative
Test System: AMES SALMONELLA TYPHIMURIUM, Strain/Indicator: TA100, Metabolic Activation: RAT, LIVER, S-9, AROCLOR 1254, Method: PREINCUBATION
  mutagenic call: inactive; negative
Test System: AMES SALMONELLA TYPHIMURIUM, Strain/Indicator: TA102, Metabolic Activation: NONE, Method: PREINCUBATION
  mutagenic call: inactive; negative
Test System: AMES SALMONELLA TYPHIMURIUM, Strain/Indicator: TA102, Metabolic Activation: RAT, LIVER, S-9, AROCLOR 1254, Method: PREINCUBATION
  mutagenic call: inactive; negative

Source: PubChem BioAssay AID1259407 (Chemical Carcinogenesis Research Information System (CCRIS), 2018)
